Laboratory results: US5668152A, “Protein kinase C inhibitors” (priority 1995, dated 1997)
Like-named read-outs stand apart in the source and are kept apart here.

Legend:
[1] = target: protein kinase C beta-1 (Homo sapiens, UniProt P05771); assay: PKC Enzyme assay, beta I isozyme; type: biochemical
Protocol: (§1) PKC enzymes=alpha, beta I, beta II, gamma, delta, epsilon, eta and zeta.
(§2) Assay components in a total volume of 250 μL are the following:
(§3) Vesicles consisting of 120 μg/mL phosphatidylserine (Avanti Polar Lipids) and sufficient diacylglycerol (Avanti Polar Lipids) to activate the enzyme to maximum activity in 20 mM HEPES buffer (Sigma, St. Louis, Mo.), pH 7.5, 940 μM calcium chloride (Sigma, St. Louis, Mo.) for assaying the alpha, beta I, beta II and gamma enzyme only, 1 mM EGTA for all the enzymes, 10 mM magnesium chloride (Sigma, St. Louis, Mo.) and 30 μM (gamma-32P) ATP (DuPont). For all the enzymes either histone type HL (Worthington) or myelin basic protein is used as substrate. The assay is started by addition of protein kinase C enzyme incubated at 30° C. for 10 minutes and stopped by adding 0.5 mL of cold trichloroacetic acid (Amresco) followed by 100 μL of 1 mg/mL bovine serum albumin (Sigma, St. Louis, Mo.). The precipitate is collected by vacuum filtration on glass fiber filters employing a TOMTEC™ filtration system and quantified by counting in a beta scintillation counter.

[2] = target: protein kinase C beta-2 (Homo sapiens, UniProt P05771); assay: PKC Enzyme assay, beta II isozyme; type: biochemical
Protocol: as §1, §2, §3

[3] = target: protein kinase C alpha (Homo sapiens, UniProt P17252); assay: PKC Enzyme assay, alpha isozyme; type: biochemical
Protocol: as §1, §2, §3

[4] = target: protein kinase C eta (Homo sapiens, UniProt P24723); assay: PKC Enzyme assay, eta isozyme; type: biochemical
Protocol: as §1, §2, §3

[5] = target: T1, protein kinase C zeta (Homo sapiens, UniProt Q05513); assay: PKC Enzyme assay, zeta isozyme; type: biochemical
T1 sequence (Q05513 1-592): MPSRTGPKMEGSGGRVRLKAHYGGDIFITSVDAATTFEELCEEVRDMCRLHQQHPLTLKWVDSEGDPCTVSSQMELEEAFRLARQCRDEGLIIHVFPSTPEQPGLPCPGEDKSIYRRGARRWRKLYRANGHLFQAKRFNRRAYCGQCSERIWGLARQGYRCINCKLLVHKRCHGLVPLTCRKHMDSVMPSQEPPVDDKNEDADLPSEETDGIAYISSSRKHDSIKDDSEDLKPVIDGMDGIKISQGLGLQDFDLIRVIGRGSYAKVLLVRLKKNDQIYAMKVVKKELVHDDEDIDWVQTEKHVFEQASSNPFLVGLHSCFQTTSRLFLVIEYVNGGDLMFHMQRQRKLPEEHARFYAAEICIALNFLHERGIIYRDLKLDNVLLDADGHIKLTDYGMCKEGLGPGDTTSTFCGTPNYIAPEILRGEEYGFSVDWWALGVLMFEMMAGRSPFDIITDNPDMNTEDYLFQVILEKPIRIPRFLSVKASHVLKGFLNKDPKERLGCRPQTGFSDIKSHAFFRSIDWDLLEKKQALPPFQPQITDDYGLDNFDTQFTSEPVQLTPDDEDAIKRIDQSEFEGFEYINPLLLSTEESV
Protocol: as §1, §2, §3

[6] = target: T2, protein kinase C epsilon (Homo sapiens, UniProt Q02156); assay: PKC Enzyme assay, epsilon isozyme; type: biochemical
T2 sequence (Q02156 1-737): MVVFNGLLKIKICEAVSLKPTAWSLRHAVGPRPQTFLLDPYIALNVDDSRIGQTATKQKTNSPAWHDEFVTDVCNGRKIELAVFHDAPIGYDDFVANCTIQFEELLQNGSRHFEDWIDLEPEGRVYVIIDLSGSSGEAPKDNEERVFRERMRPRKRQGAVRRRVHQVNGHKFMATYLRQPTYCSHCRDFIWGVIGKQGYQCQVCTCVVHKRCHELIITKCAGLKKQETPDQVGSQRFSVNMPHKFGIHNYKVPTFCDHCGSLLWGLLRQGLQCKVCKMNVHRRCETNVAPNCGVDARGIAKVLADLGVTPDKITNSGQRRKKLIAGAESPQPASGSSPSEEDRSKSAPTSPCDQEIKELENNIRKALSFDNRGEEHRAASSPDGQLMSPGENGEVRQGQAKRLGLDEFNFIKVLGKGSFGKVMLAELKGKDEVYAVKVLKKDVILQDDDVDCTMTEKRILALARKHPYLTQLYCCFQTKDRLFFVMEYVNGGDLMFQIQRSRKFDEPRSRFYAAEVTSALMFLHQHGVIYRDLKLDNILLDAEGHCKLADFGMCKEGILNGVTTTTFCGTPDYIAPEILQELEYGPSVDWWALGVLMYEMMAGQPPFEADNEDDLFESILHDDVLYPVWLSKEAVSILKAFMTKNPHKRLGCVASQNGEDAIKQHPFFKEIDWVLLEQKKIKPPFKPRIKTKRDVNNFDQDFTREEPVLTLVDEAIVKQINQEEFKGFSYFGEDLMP
Protocol: as §1, §2, §3

[7] = target: protein kinase C gamma (Homo sapiens, UniProt P05129); assay: PKC Enzyme assay, gamma isozyme; type: biochemical
Protocol: as §1, §2, §3

[8] = target: protein kinase C delta (Homo sapiens, UniProt Q05655); assay: biochemical
Protocol: as §1, §2, §3

[9] = PKC beta-1, 30 μM ATP, 30° C., 10 minutes, read-out: IC50 β1
[10] = PKC beta-2, 30 μM ATP, 30° C., 10 minutes, read-out: IC50 β2
[11] = PKC alpha, 30 μM ATP, 30° C., 10 minutes, read-out: IC50 α
[12] = PKC eta, 30 μM ATP, 30° C., 10 minutes, read-out: IC50 η
[13] = PKC zeta, 30 μM ATP, 30° C., 10 minutes, read-out: IC50 ζ
[14] = PKC epsilon, 30 μM ATP, 30° C., 10 minutes, read-out: IC50 ε
[15] = PKC gamma, 30 μM ATP, 30° C., 10 minutes, read-out: IC50 γ
[16] = PKC delta, 30 μM ATP, 30° C., 10 minutes, read-out: IC50 δ

protein kinase C beta-1, sequence (P05771 whole entry): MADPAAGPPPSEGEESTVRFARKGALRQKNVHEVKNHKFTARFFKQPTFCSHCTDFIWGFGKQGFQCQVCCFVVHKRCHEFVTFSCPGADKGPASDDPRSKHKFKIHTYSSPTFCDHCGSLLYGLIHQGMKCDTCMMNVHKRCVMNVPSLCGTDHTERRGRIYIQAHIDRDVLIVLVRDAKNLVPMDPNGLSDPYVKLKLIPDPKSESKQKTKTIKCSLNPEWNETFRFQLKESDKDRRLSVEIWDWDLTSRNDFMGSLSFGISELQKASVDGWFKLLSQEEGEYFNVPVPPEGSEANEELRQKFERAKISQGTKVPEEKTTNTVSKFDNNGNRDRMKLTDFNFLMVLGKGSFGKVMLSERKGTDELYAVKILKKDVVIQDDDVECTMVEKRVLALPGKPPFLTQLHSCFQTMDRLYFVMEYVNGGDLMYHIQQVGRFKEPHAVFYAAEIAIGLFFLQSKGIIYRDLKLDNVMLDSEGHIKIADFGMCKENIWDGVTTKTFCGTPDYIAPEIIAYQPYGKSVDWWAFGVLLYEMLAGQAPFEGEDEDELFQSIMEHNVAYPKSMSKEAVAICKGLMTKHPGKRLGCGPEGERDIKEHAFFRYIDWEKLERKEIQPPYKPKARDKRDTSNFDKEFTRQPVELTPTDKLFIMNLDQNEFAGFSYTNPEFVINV
protein kinase C beta-2, sequence (P05771 1-673 isoform P05771-2): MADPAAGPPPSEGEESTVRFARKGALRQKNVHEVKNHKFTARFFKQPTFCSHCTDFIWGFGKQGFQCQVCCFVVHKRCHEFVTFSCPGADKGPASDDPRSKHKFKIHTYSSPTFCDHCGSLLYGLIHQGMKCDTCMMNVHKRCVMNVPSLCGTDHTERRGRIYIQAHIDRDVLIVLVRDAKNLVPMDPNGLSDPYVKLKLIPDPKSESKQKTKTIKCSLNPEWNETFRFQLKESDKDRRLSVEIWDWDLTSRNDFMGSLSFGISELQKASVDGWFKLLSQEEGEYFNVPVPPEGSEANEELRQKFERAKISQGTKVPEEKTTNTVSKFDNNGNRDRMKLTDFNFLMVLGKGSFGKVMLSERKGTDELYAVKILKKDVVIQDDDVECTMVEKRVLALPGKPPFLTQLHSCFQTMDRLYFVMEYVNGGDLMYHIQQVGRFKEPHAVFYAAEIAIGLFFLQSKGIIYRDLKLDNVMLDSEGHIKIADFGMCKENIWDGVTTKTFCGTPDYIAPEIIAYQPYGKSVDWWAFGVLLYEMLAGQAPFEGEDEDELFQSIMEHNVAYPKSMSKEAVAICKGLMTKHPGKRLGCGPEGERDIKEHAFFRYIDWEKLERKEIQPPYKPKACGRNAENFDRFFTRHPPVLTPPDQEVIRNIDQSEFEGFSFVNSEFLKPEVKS
protein kinase C eta, sequence (P24723 whole entry): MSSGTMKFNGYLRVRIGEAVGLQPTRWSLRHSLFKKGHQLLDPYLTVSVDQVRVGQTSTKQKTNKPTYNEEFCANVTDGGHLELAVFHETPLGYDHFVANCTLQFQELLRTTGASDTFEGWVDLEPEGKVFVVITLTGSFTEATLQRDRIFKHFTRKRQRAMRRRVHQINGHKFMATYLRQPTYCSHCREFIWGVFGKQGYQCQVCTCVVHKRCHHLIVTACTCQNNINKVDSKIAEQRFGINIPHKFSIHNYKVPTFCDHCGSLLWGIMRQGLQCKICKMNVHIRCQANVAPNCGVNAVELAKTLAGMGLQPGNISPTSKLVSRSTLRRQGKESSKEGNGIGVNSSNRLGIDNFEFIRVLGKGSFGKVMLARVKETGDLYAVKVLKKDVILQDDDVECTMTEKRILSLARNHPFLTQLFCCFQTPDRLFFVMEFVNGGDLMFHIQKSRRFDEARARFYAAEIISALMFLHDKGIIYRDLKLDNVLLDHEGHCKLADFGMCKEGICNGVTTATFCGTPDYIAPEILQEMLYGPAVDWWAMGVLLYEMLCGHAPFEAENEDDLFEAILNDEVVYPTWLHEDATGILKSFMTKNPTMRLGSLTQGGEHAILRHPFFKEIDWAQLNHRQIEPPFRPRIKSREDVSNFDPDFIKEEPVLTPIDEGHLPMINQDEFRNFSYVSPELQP
protein kinase C delta, sequence (Q05655 whole entry): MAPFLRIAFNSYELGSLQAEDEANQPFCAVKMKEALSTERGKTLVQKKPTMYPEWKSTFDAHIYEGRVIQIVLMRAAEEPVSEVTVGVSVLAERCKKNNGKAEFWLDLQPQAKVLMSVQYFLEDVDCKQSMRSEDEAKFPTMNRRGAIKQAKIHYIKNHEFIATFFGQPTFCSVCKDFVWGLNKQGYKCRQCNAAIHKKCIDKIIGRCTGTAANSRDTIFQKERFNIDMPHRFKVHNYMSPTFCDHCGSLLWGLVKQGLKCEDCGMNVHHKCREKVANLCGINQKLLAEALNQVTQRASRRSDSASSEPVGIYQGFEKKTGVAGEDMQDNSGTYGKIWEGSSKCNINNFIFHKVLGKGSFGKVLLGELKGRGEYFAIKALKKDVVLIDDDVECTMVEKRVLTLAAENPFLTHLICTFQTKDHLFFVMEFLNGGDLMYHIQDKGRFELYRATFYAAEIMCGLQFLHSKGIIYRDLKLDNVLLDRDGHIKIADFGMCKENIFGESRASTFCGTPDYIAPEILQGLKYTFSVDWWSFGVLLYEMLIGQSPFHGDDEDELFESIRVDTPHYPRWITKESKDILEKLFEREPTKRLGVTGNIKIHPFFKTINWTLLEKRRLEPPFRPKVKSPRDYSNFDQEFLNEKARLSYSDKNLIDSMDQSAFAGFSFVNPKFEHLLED

| SMILES | IC50 [1, 9] [nM] | IC50 [2, 10] [nM] | IC50 [3, 11] [nM] | IC50 [4, 12] [nM] | IC50 [5, 13] [nM] | IC50 [6, 14] [nM] | IC50 [7, 15] [nM] | IC50 [8, 16] [nM] | IC50 [1] [nM] | IC50 [2] [nM] | IC50 [3] [nM] | IC50 [4] [nM] | IC50 [6] [nM] | IC50 [7] [nM] | IC50 [8] [nM] | IC50 [5] [nM] |
| --- | --- | --- | --- | --- | --- | --- | --- | --- | --- | --- | --- | --- | --- | --- | --- | --- |
| CC(=O)OCC1(COC(C)=O)CCn2c(c(C3=C(c4cn(C)c5ccccc45)C(=O)NC3=O)c3ccccc32)C1 [Example 1, 3-[8,8-bis(acetoxymethylene)-6,7,8,9-tetrahydropyrido[1,2-a]indol-10-yl]-4-(1-methyl-3-indolyl)-1H-pyrrole-2,5-dione] | 360 | 300 | 9800 | 121000 | 50000 | 150000 | 38000 | 47000 |  |  |  |  |  |  |  |  |
| Cn1cc(C2=C(c3c4n(c5ccccc35)CCC(CO)(CO)C4)C(=O)NC2=O)c2ccccc21 [Example 2, 3-[8,8-bis(hydroxymethylene)-6,7,8,9-tetrahydropyrido[1,2-a]indol-10-yl]-4-(1-methyl-3-indolyl)-1H-pyrrole-2,5-dione] | 70 | 60 | 3500 | 5700 | 33000 | 31800 | 8800 | 6800 |  |  |  |  |  |  |  |  |
| CC(=O)NC[C@H]1O[C@H](OCCn2cc(C3=C(c4cn(C)c5ccccc45)C(=O)NC3=O)c3ccccc32)C[C@@H]1O [Example 3] | 36 | 25 | 320 | 1100 | 46000 | 600 | 4400 | 410 |  |  |  |  |  |  |  |  |
| Cn1cc(C2=C(c3cn(C4CCN(Cc5ccccc5)CC4)c4ccccc34)C(=O)NC2=O)c2ccccc21 [Example 4, 3-(1-[4-(1-benzyl)-piperidinyl]-3-indolyl)-4-(1-methyl-3-indolyl)-1H-pyrrole-2,5-dione] | 50 | 30 | 6000 | 500 |  | 4000 | 7000 | 6000 |  |  |  |  |  |  |  |  |
| Cn1cc(C2=C(c3cn(C4CCN(C(=NC(=O)OC(C)(C)C)NC(=O)OC(C)(C)C)CC4)c4ccccc34)C(=O)NC2=O)c2ccccc21 [Example 5, [t-Butoxycarbonylimino-(4-{3-[4-(1-methyl-1H-indol-3-yl)-2,5-dioxo-2,5-dihydro-1H-pyrrole-3-yl]-indol-1-yl}-piperidin-1-yl)-methyl]-carbamic acid t-butyl ester] | 44 | 29 | 370 | 150 | 42000 | 2600 | 500 | 470 |  |  |  |  |  |  |  |  |
| Cn1cc(C2=C(c3cn(C4CCN(C(=O)OC(C)(C)C)CC4)c4ccccc34)C(=O)NC2=O)c2ccccc21 [Example 6, 3-(1-[4-(1-t-butoxycarbonyl)-piperidinyl]-3-indolyl)-4-(1-methyl-3-indolyl)-1H-pyrrole-2,5-dione] |  |  |  |  |  |  |  |  | 220 | 82 | 6100 | 300 | 4400 | 5300 | 7300 |  |
| CC(C)(C)OC(=O)N1CCC(n2cc(C3=C(c4c[nH]c5ccccc45)C(=O)NC3=O)c3ccccc32)CC1 [Example 7] | 230 | 100 | 3300 | 6200 | 31000 | 6300 | 2800 | 4100 |  |  |  |  |  |  |  |  |
| CC(C)N1CCC(n2cc(C3=C(c4cn(C)c5ccccc45)C(=O)NC3=O)c3ccccc32)CC1 [Example 8, 3-[1-(1-i-Propyl-piperidin-4-yl)-1H-indol-3-yl]-4-(1-methyl-1H-indol-3-yl)-pyrrole-2,5-dione] | 19 | 26 | 340 | 130 | 9300 | 390 | 1300 | 970 |  |  |  |  |  |  |  |  |
| Cn1cc(C2=C(c3c4n(c5ccccc35)CCC(CO)C4)C(=O)NC2=O)c2ccccc21 (stereo not drawn) [Example 9, 3-[8-(Hydroxymethyl)-6,7,8,9-tetrahydropyrido[1,2-a]indol-10-yl]-4-(1-methyl-3-indolyl)-1H-pyrrole-2,5 dione] | 14 | 6.1 | 270 | 400 | 9260 | 3800 | 1500 | 440 |  |  |  |  |  |  |  |  |
| CN(C)CCCn1cc(C2=C(c3c[nH]c4ccccc34)C(=O)NC2=O)c2ccccc21 [Example 10] |  |  |  |  |  |  |  |  | 50 | 50 | 660 | 90 | 930 | 1040 | 920 | 23000 |
| CN(C)CCCn1cc(C2=C(c3cn(C)c4ccccc34)C(=O)NC2=O)c2ccccc21 [Example 13] |  |  |  | 470 | 25000 | 3600 | 1700 | 930 | 140 | 60 |  |  |  |  |  |  |
| CCN1CCC(n2cc(C3=C(c4cn(C)c5ccccc45)C(=O)NC3=O)c3ccccc32)CC1 [Example 40, 3-[1-(1-Ethyl-piperidin-4-yl)-indol-3-yl]-4-(1-methyl-indol-3-yl)-pyrrole-2,5-dione] | 20 | 5 | 400 | 40 |  | 400 | 300 | 300 |  |  |  |  |  |  |  |  |
| Cn1cc(C2=C(c3cn(C4CCN(Cc5ccccn5)CC4)c4ccccc34)C(=O)NC2=O)c2ccccc21 [Example 49] |  |  |  |  | 8000 | 300 | 2000 |  |  |  |  |  |  |  |  |  |
| Cn1cc(C2=C(c3cn(C4CCNCC4)c4ccccc34)C(=O)NC2=O)c2ccccc21 [Example 52] |  |  |  | 200 | 4000 | 1000 |  |  |  |  |  |  |  |  |  |  |
| Cn1cc(C2=C(c3cn(CCO[C@@H]4O[C@H](CN=[N+]=[N-])[C@H](O)[C@H](O)[C@H]4O)c4ccccc34)C(=O)NC2=O)c2ccccc21 [Example 57] | 1600 | 360 | 10000 | 4000 | > 100000 | > 100000 |  | 9000 |  |  |  |  |  |  |  |  |
| Cn1cc(C2=C(c3cn(CCO[C@H]4O[C@H](CN)[C@H](O)[C@H](O)[C@H]4O)c4ccccc34)C(=O)NC2=O)c2ccccc21 [Example 65] | 390 |  | 8100 | 3400 | 47000 |  | 30000 | 8400 |  |  |  |  |  |  |  |  |
| Cn1cc(C2=C(c3cn(CCOC4OC(CN)C(O)C(O)C4O)c4ccccc34)C(=O)NC2=O)c2ccccc21 (stereo not drawn) [Example 66] | 240 |  | 9000 | 3000 | 37000 |  | 30000 | 4400 |  |  |  |  |  |  |  |  |
